# Test results published in the NIST ThermoML archive (doi:10.1021/je100757w).
# Numbers after ± are expanded uncertainties.
# Tests used:
# [1] = for surface tension liquid-gas: Ring tensiometer; for mass density: 101.3 kPa, Liquid
# [2] = xn = mol fraction of the nth substance listed; details: x2 = 0; for surface tension liquid-gas: Ring tensiometer; for mass density: 101.3 kPa, Liquid
Compound,surface tension liquid-gas ([1]; 298.15 K) [mN/m],mass density ([1]; 298.15 K) [kg/m3],surface tension liquid-gas ([1]; 308.15 K) [mN/m],mass density ([1]; 308.15 K) [kg/m3],surface tension liquid-gas ([1]; 318.15 K) [mN/m],mass density ([1]; 318.15 K) [kg/m3],surface tension liquid-gas ([2]; 298.15 K) [mN/m],surface tension liquid-gas ([2]; 308.15 K) [mN/m],mass density ([2]; 308.15 K) [kg/m3],surface tension liquid-gas ([2]; 318.15 K) [mN/m]
"COCCOCCOCCOCCOC [2,5,8,11,14-pentaoxapentadecane]",33.74 ± 0.69,1007.26 ± 2.1,32.45 ± 0.67,997.98 ± 2.1,31.71 ± 0.65,988.72 ± 2.1,,,,
"COCCOCCOCCOC [2,5,8,11-tetraoxadodecane]",27.56 ± 0.48,981.23 ± 1.1,28.48 ± 0.5,971.71 ± 1.1,27.83 ± 0.49,962.19 ± 1.1,,,,
"COCCOCCOC [2,5,8-trioxanonane]",24.56 ± 0.41,940.01 ± 0.83,27.65 ± 0.45,930.03 ± 0.86,23.44 ± 0.4,919.99 ± 0.88,,,,
O [water] + COCCOCCOC,,,,,,,71.37 ± 1,70.08 ± 1,994.06 ± 0.27,69.11 ± 1
O [water] + COCCOCCOCCOC,,,,,,,71.37 ± 1,70.08 ± 1,994.06 ± 0.27,69.11 ± 1
O [water] + COCCOCCOCCOCCOC,,,,,,,71.37 ± 1,70.08 ± 1,994.06 ± 0.27,69.11 ± 1
